Experiments:
[1] = system: epilepsy induced by PTZ in guinea pigs; assay: ABR wave parameters (amplitude, latency) in PTZ-induced epilepsy; type: in vivo, guinea pig; details: 100 dB
Method: (§1) Experiments were performed in pigmented adult male guinea pigs initially weighing 349±38 g. ABRs recordings were used to evaluate the hearing status of each animal and EEG recordings to evaluate changes in cortical excitability. The ABR and EEG recordings were obtained following a method that we have previously reported (Nekrassov and Sitges, 2003). The Institutional Animal Use and Care Committee approved all experimental procedures.
(§2) Three types of recordings were performed in the anaesthetized animals, namely the ABR recordings elicited by a stimulus of high intensity (100 dB), the ABR recordings for determination of the auditory threshold and the EEG recordings.
(§3) Determination of ABR wave parameters. The latency and amplitude of each wave component of the ABR elicited by a stimulus of 100 dB with pure tone frequencies of 4 and 8 kHz was measured in all the ABR recordings obtained under the different experimental conditions at the specified times. The latency of each ABR wave (in ms) refers to the time interval between the onset of the auditory stimulus and the positive peak of the wave. The onset of the stimulus is indicated by the vertical arrow at the bottom of the recordings on FIG. 1. The peak amplitude (in μV) of each wave of the ABR is the difference between the positive peak of the wave and the reference baseline (trace between the stimulus and the appearance of the first ABR wave on FIG. 1).
(§4) Student's t-test was used for the evaluation of the differences between results obtained before and at the specified times after the injection of the convulsing agents. The criterion for statistical significance for all measures was P≦0.05. All data are expressed as means±standard error of the mean. In figures and tables the symbol * is used for indicating statistic significant differences.
(§5) Eight male guinea pigs were entered into this study. PTZ was dissolved in saline and vinpocetine in a saline acidified (with HCl) adjusted to pH 4 (with NaOH). Four hours after injecting guinea pigs with vehicle (acidified saline used to dissolve vinpocetine) the animals were anaesthetized and a first set of ABR and EEG recordings was taken before the injection (i.p) of the convulsing agent, PTZ. The animals were injected with PTZ (100 mg/kg) and about 2 min after injecting PTZ (ictal period) the EEG recording was taken. Then the other series of ABR and EEG recordings were taken at specific times within the post-ictal period. After two weeks the same series of recordings was taken but instead vehicle the animals were injected with vinpocetine (2 mg/kg) 4 hours before the injection of PTZ.

humans = details: doses as high as 60 mg/day; Hindmarch et al. 1991; cited from earlier work
presynaptic Na+ channels = details: brain isolated nerve endings; Sitges and Nekrassov 1999; Trejo et al. 2001; cited from earlier work
[2] = system: guinea pig treated with amikacin; details: high dose of amikacin; Nekrassov and Sitges 2000; cited from earlier work
[3] = system: hearing loss induced by 4-AP in guinea pigs; assay: ABR (auditory) threshold in 4-AP-induced epilepsy; type: in vivo, guinea pig
Method: as §1, §2
(§6) Determination of ABR thresholds. ABR recordings elicited by stimuli of progressively lower intensity (in dB) were used for determining the hearing threshold. Threshold is defined as the lowest stimulus intensity (in dB) at which the P3 wave of the ABR could still be recorded in three consecutive trials.
as §4
(§7) Five guinea pigs were entered into the study. One hour after injecting guinea pigs with vehicle (acidified saline used to dissolve vinpocetine) the animals were anaesthetized and a first set of ABR and EEG recordings was taken before the injection (i.p) of the convulsing agent, 4-AP. The animals were injected with 4-AP (2 mg/kg) and about 20 min after injecting 4-AP (ictal period) the EEG recording was taken. Then the other series of ABR and EEG recordings were taken at specific times within the post-ictal period. After two weeks the same series of recordings were repeated but instead vehicle the animals were injected with vinpocetine (2 mg/kg) 1 hour before the injection of 4-AP.

[4] = system: epilepsy induced by 4-AP in guinea pigs; assay: ABR wave parameters (amplitude, latency) in 4-AP-induced epilepsy; type: in vivo, guinea pig; details: 100 dB
Method: as §1, §2, §3, §4, §7

[5] = system: epileptic cortical activity induced by 4-AP in guinea pigs; assay: EEG recordings of cortical activity in 4-AP-induced epilepsy; type: in vivo, guinea pig; details: ictal (about 20 min) and post-ictal (30, 60, 80 min) periods; vinpocetine 2 mg/kg 1 h before 4-AP; FIGS. 6, 7
Method: as §1, §2, §7
Vinpocetine inhibits all the changes induced by 4-AP on the EEG. […] This change on the cortical activity elicited by 4-AP for the ictal period is followed by the post-ictal period characterized by isolated spikes of higher amplitude that appear on the EEG about one hour after the injection of 4-AP. […] The top traces of FIG. 6 show the characteristic EEG recordings taken before the injection of 4-AP in the animals pre-injected with vehicle (a) and in the animals pre-injected with vinpocetine (b). The changes induced by 4-AP on for the ictal period are shown in the second trace on FIG. 6a. In the vinpocetine treated animals 4-AP was unable to induce the ictal activity (second trace on FIG. 6b).

[6] = system: hearing loss induced by PTZ in guinea pigs; assay: ABR (auditory) threshold in PTZ-induced epilepsy; type: in vivo, guinea pig
Method: as §1, §2, §6, §4, §5

[7] = 4 kHz, 30 min after PTZ 100 mg/kg i.p., vinpocetine 2 mg/kg or vehicle 4 h before PTZ
[8] = 4 kHz, 50 min after PTZ 100 mg/kg i.p., vinpocetine 2 mg/kg or vehicle 4 h before PTZ
[9] = 4 kHz, before PTZ injection, 4 h after vinpocetine 2 mg/kg, mean±SEM, 8 animals
[10] = 8 kHz, 30 min after PTZ 100 mg/kg i.p., vinpocetine 2 mg/kg or vehicle 4 h before PTZ
[11] = 8 kHz, 50 min after PTZ 100 mg/kg i.p., vinpocetine 2 mg/kg or vehicle 4 h before PTZ
[12] = 8 kHz, before PTZ injection, 4 h after vinpocetine 2 mg/kg, mean±SEM, 8 animals
[13] = 4 kHz, 30 min after 4-AP 2 mg/kg i.p., vinpocetine 2 mg/kg or vehicle 1 h before 4-AP
[14] = 4 kHz, 60 min after 4-AP 2 mg/kg i.p., vinpocetine 2 mg/kg or vehicle 1 h before 4-AP
[15] = 8 kHz, 30 min after 4-AP 2 mg/kg i.p., vinpocetine 2 mg/kg or vehicle 1 h before 4-AP
[16] = 8 kHz, 60 min after 4-AP 2 mg/kg i.p., vinpocetine 2 mg/kg or vehicle 1 h before 4-AP

For `CCOC(=O)C1=C[C@]2(CC)CCCN3CCc4c(n1c1ccccc41)[C@@H]32` [Vinpocetine, ethyl apovincamine-22-oate], the “effect on the increase in latencies of the ABR waves P2, P3 and P4 produced by PTZ” value ([1]; 4 and 8 kHz, vinpocetine 2 mg/kg 4 h before PTZ, FIG. 2) was “inhibits the increase”, the “P4 wave peak amplitude of the ABR” value ([1]; 4 kHz, 10 min after PTZ 100 mg/kg i.p., vinpocetine 2 mg/kg or vehicle 4 h before PTZ) was 2.55 ± 0.3 μV and the “P4 wave peak amplitude of the ABR” value ([1]; 4 kHz, 20 min after PTZ 100 mg/kg i.p., vinpocetine 2 mg/kg or vehicle 4 h before PTZ) was 2.52 ± 0.2 μV. For the same molecule, the “P4 wave peak amplitude of the ABR” value [1, 7] was 2.55 ± 0.2 μV, the “P4 wave peak amplitude of the ABR” value [1, 8] was 2.52 ± 0.2 μV and the “P4 wave peak amplitude of the ABR” value [1, 9] was 2.82 ± 0.3 μV. For the same molecule, the “P4 wave peak amplitude of the ABR” value ([1]; 8 kHz, 10 min after PTZ 100 mg/kg i.p., vinpocetine 2 mg/kg or vehicle 4 h before PTZ) was 2.56 ± 0.1 μV, the “P4 wave peak amplitude of the ABR” value ([1]; 8 kHz, 20 min after PTZ 100 mg/kg i.p., vinpocetine 2 mg/kg or vehicle 4 h before PTZ) was 2.71 ± 0.2 μV and the “P4 wave peak amplitude of the ABR” value [1, 10] was 2.55 ± 0.2 μV. For the same molecule, the “P4 wave peak amplitude of the ABR” value [1, 11] was 2.56 ± 0.1 μV, the “P4 wave peak amplitude of the ABR” value [1, 12] was 2.69 ± 0.1 μV and the tolerability in humans (humans) was “well tolerated and without contraindications”. For the same molecule, the “neurotransmitter release induced by an increase in presynaptic Na+ channels permeability” value (presynaptic Na+ channels) was “selectively inhibits”, the “protective action over changes in ABR waves, hearing loss and mortality induced by amikacin” value [2] was “long term (more than half a year) protective action” and the auditory threshold [3, 13] was 11.3 ± 1.3 dB. The auditory threshold [3, 14] was 11.3 ± 1.3 dB, the auditory threshold ([3]; 4 kHz, before 4-AP injection, 1 h after vinpocetine 2 mg/kg) was 13.8 ± 1.3 dB and the auditory threshold [3, 15] was −1.3 ± 2.4 dB. The auditory threshold [3, 16] was 0.0 ± 3.5 dB, the auditory threshold ([3]; 8 kHz, before 4-AP injection, 1 h after vinpocetine 2 mg/kg) was 2.5 ± 1.4 dB and the “latency of the P4 wave of the ABR” value [4, 13] was 3.37 ± 0.06 ms. For the same molecule, the “latency of the P4 wave of the ABR” value [4, 14] was 3.54 ± 0.11 ms, the “latency of the P4 wave of the ABR” value ([4]; 4 kHz, 80 min after 4-AP 2 mg/kg i.p., vinpocetine 2 mg/kg or vehicle 1 h before 4-AP) was 3.56 ± 0.04 ms and the “latency of the P4 wave of the ABR” value ([4]; 4 kHz, 100 min after 4-AP 2 mg/kg i.p., vinpocetine 2 mg/kg or vehicle 1 h before 4-AP) was 3.43 ± 0.09 ms. For the same molecule, the “latency of the P4 wave of the ABR” value ([4]; 4 kHz, before 4-AP injection, 1 h after vinpocetine 2 mg/kg, 5 animals) was 3.45 ± 0.06 ms, the “latency of the P4 wave of the ABR” value [4, 15] was 3.55 ± 0.07 ms and the “latency of the P4 wave of the ABR” value [4, 16] was 3.45 ± 0.08 ms. For the same molecule, the “latency of the P4 wave of the ABR” value ([4]; 8 kHz, 80 min after 4-AP 2 mg/kg i.p., vinpocetine 2 mg/kg or vehicle 1 h before 4-AP) was 3.36 ± 0.05 ms, the “latency of the P4 wave of the ABR” value ([4]; 8 kHz, 100 min after 4-AP 2 mg/kg i.p., vinpocetine 2 mg/kg or vehicle 1 h before 4-AP) was 3.35 ± 0.07 ms and the “latency of the P4 wave of the ABR” value ([4]; 8 kHz, before 4-AP injection, 1 h after vinpocetine 2 mg/kg, 5 animals) was 3.48 ± 0.04 ms. The “progressive increase in the amplitude of the P3 wave of the ABR produced by 4-AP” value ([4]; 8 kHz, vinpocetine 2 mg/kg 1 h before 4-AP, FIG. 5a,b) was “eliminated”, the “reduction in P4 amplitude produced by 4-AP” value ([4]; 8 kHz, vinpocetine 2 mg/kg 1 h before 4-AP, FIG. 5c,d) was “markedly reduced” and the “effect on changes on the cortical activity (EEG) induced by 4-AP” value [5] was “completely prevents”. The auditory threshold [6, 7] was 18 ± 1.2 dB, the auditory threshold [6, 8] was 18 ± 1.2 dB and the auditory threshold [6, 9] was 20 ± 1.6 dB. For the same molecule, the auditory threshold [6, 10] was 6.0 ± 1.0 dB, the auditory threshold [6, 11] was 6.0 ± 1.0 dB and the auditory threshold [6, 12] was 6.0 ± 1.0 dB.

Reference: patent publication US20070135470A1, “Utilization of vinpocetine to avoid complications in particular those associated to hearing which occur with epilepsy, and treatment thereof” (UNIVERSIDAD NACIONAL AUTONOMA DE MEXICO, priority 2003, published 2007)
